From the NIST ThermoML archive (doi:10.1021/acs.jced.7b00433)

Assay: xn = mol fraction of the nth substance listed
Conditions: Drop volume

CCCC(N)C(=O)O (stereo not drawn) [DL-2-aminopentanoic acid] + O
surface tension liquid-gas [mN/m]
Conditions	x1 = 0.000173	x1 = 0.000347	x1 = 0.000561	x1 = 0.00104	x1 = 0.001386	x1 = 0.001733	x1 = 0.002079	x1 = 0.002641
293.15 K	72.55	72.51	72.43	72.37	72.31	72.25	72.16	72.06
298.15 K	71.84	71.8	71.71	71.63	71.53	71.47	71.41	71.25
303.15 K	71.16	71.13	71.01	70.91	70.79	70.71	70.65	70.5
308.15 K	70.35	70.31	70.2	70.1	70.02	69.85	69.78	69.63
313.15 K	69.39	69.34	69.22	69.07	69	68.86	68.75	68.58

O [water] + CC(N)C(=O)O
x2 = 0
Conditions	surface tension liquid-gas [mN/m]
293.15 K	72.5
298.15 K	71.73
303.15 K	71.04
308.15 K	70.3
313.15 K	69.42

CCC(N)C(=O)O (stereo not drawn) [(.+-.)-α-aminobutyric acid] + O
surface tension liquid-gas [mN/m]
Conditions	x1 = 0.000177	x1 = 0.000351	x1 = 0.000702	x1 = 0.001053	x1 = 0.001403	x1 = 0.001754	x1 = 0.002103	x1 = 0.002641
293.15 K	72.49	72.49	72.48	72.47	72.46	72.45	72.44	72.43
298.15 K	71.8	71.79	71.77	71.75	71.74	71.72	71.71	71.69
303.15 K	71.08	71.07	71.05	71.02	71	70.98	70.96	70.93
308.15 K	70.25	70.24	70.21	70.19	70.15	70.13	70.09	70.07
313.15 K	69.47	69.45	69.42	69.39	69.35	69.31	69.28	69.22

CC(N)C(=O)O (stereo not drawn) [DL-2-aminopropanoic acid] + O
surface tension liquid-gas [mN/m]
Conditions	x1 = 0.000176	x1 = 0.000353	x1 = 0.000705	x1 = 0.001055	x1 = 0.001406	x1 = 0.001752	x1 = 0.002105	x1 = 0.002642
293.15 K	72.52	72.53	72.55	72.58	72.59	72.62	72.64	72.68
298.15 K	71.83	71.86	71.9	71.95	72	72.07	72.1	72.18
303.15 K	71.11	71.15	71.25	71.35	71.44	71.5	71.61	71.72
308.15 K	70.4	70.42	70.57	70.7	70.83	70.94	71.09	71.28
313.15 K	69.48	69.59	69.73	69.87	70.02	70.2	70.36	70.57

CCCCC(N)C(=O)O (stereo not given) [2-aminohexanoic acid] + O
surface tension liquid-gas [mN/m]
Conditions	x1 = 0.000156	x1 = 0.000311	x1 = 0.000524	x1 = 0.000699	x1 = 0.000873	x1 = 0.001048	x1 = 0.001222	x1 = 0.001411
293.15 K	72.4	72.21	72.02	71.85	71.71	71.48	71.28	71.09
298.15 K	71.55	71.28	71.14	71	70.82	70.59	70.42	70.18
303.15 K	70.74	70.54	70.43	70.22	70.06	69.79	69.65	69.44
308.15 K	69.9	69.8	69.62	69.44	69.23	69	68.8	68.59
313.15 K	69.2	69.02	68.91	68.68	68.47	68.18	68.02	67.87

NCC(=O)O [2-aminoacetic acid] + O
surface tension liquid-gas [mN/m]
Conditions	x1 = 0.000175	x1 = 0.000349	x1 = 0.000698	x1 = 0.001043	x1 = 0.001394	x1 = 0.00174	x1 = 0.002087	x1 = 0.002641
293.15 K	72.47	72.49	72.52	72.57	72.62	72.68	72.73	72.81
298.15 K	71.75	71.79	71.86	71.92	71.99	72.05	72.11	72.2
303.15 K	71.04	71.12	71.23	71.33	71.43	71.54	71.64	71.76
308.15 K	70.26	70.38	70.52	70.66	70.81	70.95	71.09	71.25
313.15 K	69.49	69.63	69.79	69.95	70.11	70.27	70.43	70.61

O [water] + CCC(N)C(=O)O
x2 = 0
Conditions	surface tension liquid-gas [mN/m]
293.15 K	72.5
298.15 K	71.73
303.15 K	71.1
308.15 K	70.27
313.15 K	69.5

O [water] + CCCC(N)C(=O)O
x2 = 0
Conditions	surface tension liquid-gas [mN/m]
293.15 K	72.58
298.15 K	71.73
303.15 K	71.21
308.15 K	70.4
313.15 K	69.46

O [water] + CCCCC(N)C(=O)O
x2 = 0
Conditions	surface tension liquid-gas [mN/m]
293.15 K	72.5
298.15 K	71.73
303.15 K	71
308.15 K	70.23
313.15 K	69.42

O [water] + NCC(=O)O
x2 = 0
Conditions	surface tension liquid-gas [mN/m]
293.15 K	72.45
298.15 K	71.73
303.15 K	71
308.15 K	70.22
313.15 K	69.45
